Experiment: refractive index (Na D-line) (dimensionless); xn = mol fraction of the nth substance listed
Settings: 101 kPa, Liquid, Standard Abbe refractometry

CN(C)CCCO [3-dimethylamino-1-propanol] + O
refractive index
Settings | x1 = 0.098 | x1 = 0.197 | x1 = 0.293 | x1 = 0.398 | x1 = 0.5 | x1 = 0.598 | x1 = 0.7 | x1 = 0.795 | x1 = 0.9 | x1 = 1
293.15 K | 1.3569 | 1.3653 | 1.3763 | 1.4033 | 1.4193 | 1.4284 | 1.4345 | 1.4393 | 1.443 | 1.4368
298.15 K | 1.3562 | 1.3644 | 1.3752 | 1.4018 | 1.4172 | 1.4268 | 1.4329 | 1.4377 | 1.4405 | 1.4347
303.15 K | 1.35534 | 1.3635 | 1.3742 | 1.4004 | 1.4155 | 1.4251 | 1.431 | 1.4359 | 1.439 | 1.4326
308.15 K | 1.3545 | 1.3625 | 1.3731 | 1.3987 | 1.4139 | 1.4233 | 1.4291 | 1.4338 | 1.4369 | 1.4305
313.15 K | 1.3537 | 1.3615 | 1.3719 | 1.3972 | 1.4121 | 1.4216 | 1.4273 | 1.4319 | 1.4349 | 1.4285
318.15 K | 1.3528 | 1.3605 | 1.3708 | 1.3956 | 1.4105 | 1.4199 | 1.4255 | 1.4302 | 1.4324 | 1.4264
323.15 K | 1.3517 | 1.3593 | 1.3696 | 1.3947 | 1.4088 | 1.418 | 1.4239 | 1.4286 | 1.4315 | 1.4243
328.15 K | 1.3506 | 1.3582 | 1.3682 | 1.3925 | 1.4072 | 1.4164 | 1.4226 | 1.427 | 1.4301 | 1.4222
333.15 K | 1.3502 | 1.3571 | 1.3671 | 1.391 | 1.4056 | 1.4146 | 1.4204 | 1.4245 | 1.4278 | 1.42

Reference: the NIST ThermoML archive (doi:10.1016/j.tca.2012.05.025)
